These results are taken from patent US6930092B1, “Antibiotic agents” (priority 1999, dated 2005).

Read-outs that look alike come from different tables or passages of the source.

The format of data set [1] is physicochemical. The method, then:
The suspected intermediate, eBee was prepared and then was added into a partially degraded erythromycin B, the mixture of partially degraded erythromycin B, and the pure eBee solution were compared. […] However, the involvement of eBee as the intermediate in the degradation of erythromycin B was clearly observed in the degradation experiment of eBee.
At present, there is no mechanism of degradation of erythromycin B which has been proposed. An experiment was designed to distinguish whether eBee is degraded to 5-deB via erythromycin B or not. Britton-Robinson buffers, 40 mM of pH2 and 7 were prepared and aliquoted into eppendorf tubes. Just before the experiment started, erythromycin B was dissolved in 20 ul of dimethyl-d6 sulfoxide (99.9 atom % D, Sigma, St Louis, USA) and then was transferred immediately into the buffer and 1D^1H NMR spectra were recorded at 37° C. The typical spectra at 0, 10 and 20 min are depicted in FIGS. 19, 20 and 21, respectively.
After 10 min, the amount of eBee was reduced to almost 40%, but 5-deB was still undetectable. After 20 min, 5-deB appeared in the spectrum, characterised by its H13 at δ5.38, whilst eBee became insignificant in the spectrum.
A similar experiment was repeated by using buffer at pH 7, and 1D^1H spectra were recorded at 37° C. The spectrum of eBee after 0 and 60 min of incubation are depicted in FIGS. 22 and 23, respectively. […] There was trace of erythromycin B but no eBee was detected in the spectra.

A short description of data set [2]: Degradation of 5-deB in Britton-Robinson buffer followed by 1D 1H NMR. Type of data set: physicochemical. The following applies: apparent pH 2.5, 55° C., 5 hr. From the text:
The deuteriation effects at C8 as in erythromycin B were observed but there was no change elsewhere.

For data set [3] the following is noted: cited from earlier work.

Turning to `CC[C@H]1OC(=O)[C@H](C)[C@@H](O[C@H]2C[C@@](C)(OC)[C@@H](O)[C@H](C)O2)[C@H](C)[C@@H](O[C@@H]2O[C@H](C)C[C@H](N(C)C)[C@H]2O)C2(C)CC(C)=C(O2)[C@H](C)[C@@H](O)[C@H]1C` (stereo partly shown) [eBee, erythromycin B enol ether], the “amount of eBee in the spectrum” value in data set [1] (Britton-Robinson buffer pH 2, 37° C., after 20 min) is listed as “insignificant”. Moreover, in data set [1] (buffer, 10 min, pH 2), the “amount of eBee remaining” value is given as roughly 40%. Besides, the degradation result was “rapidly degraded to erythromycin B” in data set [1] (pH 2.5) and “not degraded at least for 80 min” in data set [1] (pH 7).

With `CC[C@H]1OC(=O)[C@H](C)[C@@H](O[C@H]2C[C@@](C)(OC)[C@@H](O)[C@H](C)O2)[C@H](C)[C@@H](O[C@@H]2O[C@H](C)C[C@H](N(C)C)[C@H]2O)[C@](C)(O)C[C@@H](C)C(=O)[C@H](C)[C@@H](O)[C@H]1C` [erythromycin B, Erythromycin B], the “time in which decomposition was completed” value (pH 2.5, depending on the temperature used) was in the range of 6 to 12 h. For the same compound, the degradation result (pH 4.6) is on record as “degradation occurred very slowly”.

As for 5-desosaminyl erythronolide B [5-deB], the further degradation result in data set [2] is listed as “does not degrade further”.

Turning to `CC[C@H]1OC(=O)[C@H](C)[C@@H](O[C@H]2C[C@@](C)(OC)[C@@H](O)[C@H](C)O2)[C@H](C)[C@@H](O[C@@H]2O[C@H](C)C[C@H](N(C)C)[C@H]2O)[C@](C)(O)C[C@@H](C)C(=O)[C@H](C)[C@@H](O)[C@]1(C)O` [erythromycin A], in data set [3] (50 mM acetate buffer pH 4.6, 60° C.), the “time in which degraded to completeness” value is no more than 3 h. Further, the “time in which decomposed almost completely” value in data set [3] (50 mM formate buffer pH 4, 37° C.) is no more than 4 h. In data set [3] (pH 3.5, 35° C.), the degradation result is “degraded substantially even before the first spectrum was recorded”.
